Source: patent US20260022142A1, “MACROCYCLIC IMMUNOMODULATORS” (Bristol-Myers Squibb Company, priority 2022, published 2026)
Numbered stars: 1 amine (or outer) side, 2 acyl side, 3 side chain; on linkers, the order of the positions; unused ones are H or OH. Bridge positions count the residues as written; N and C are the ends. Square brackets hold non-standard residues; d marks the D form. Peptide text beside a SMILES is read from it. * marks the point of attachment. ξ: configuration not given here. Phe(4-CONH2) = NC(=O)c1ccc(C[C@H](N)C(=O)O)cc1; Phe(4-COOH) = N[C@@H](Cc1ccc(C(=O)O)cc1)C(=O)O; Bip = N[C@@H](Cc1ccc(-c2ccccc2)cc1)C(=O)O; Phe(3-Me) = Cc1cccc(C[C@H](N)C(=O)O)c1; βAsp = O=C(O)[C@H](CC(=O)[*:2])N[*:1]; NH(CH2)12COOH = O=C(O)CCCCCCCCCCCCN*; Val(3-OH) = CC(C)(O)[C@H](N)C(=O)O; hArg = N=C(N)NCCCC[C@H](N)C(=O)O; 4Pal = N[C@@H](Cc1ccncc1)C(=O)O; Cha = N[C@@H](CC1CCCCC1)C(=O)O; Thr(3ξ) = CC(O)[C@H](N)C(=O)O; 12Ado = NCCCCCCCCCCCC(=O)O; Carboxymethyl = O=C(O)C*; Orn = NCCC[C@H](N)C(=O)O; Aun = NCCCCCCCCCCC(=O)O; Dab = NCC[C@H](N)C(=O)O; Dap = NC[C@H](N)C(=O)O; AEEA = NCCOCCOCC(=O)O; Ac3c = NC1(C(=O)O)CC1

What follows are molecules tested against T1, PD-1/PD-L1 interaction (PE-labeled human PD-L1-Ig binding to Jurkat cell line over-expressing human PD-1) (Homo sapiens, UniProt Q15116) (assay: Jurkat-PD-1 Cell Binding High-Content Screening Assay (CBA)). Details: Jurkat cell line over-expressing human PD-1; PE-labeled PD-L1-Ig 20 nM final; read-out: Jurkat hPD1-PDL1 IC50.
T1 construct: expressed in transfected cells; host or cells: Jurkat
T1 sequence (Q15116 25-288): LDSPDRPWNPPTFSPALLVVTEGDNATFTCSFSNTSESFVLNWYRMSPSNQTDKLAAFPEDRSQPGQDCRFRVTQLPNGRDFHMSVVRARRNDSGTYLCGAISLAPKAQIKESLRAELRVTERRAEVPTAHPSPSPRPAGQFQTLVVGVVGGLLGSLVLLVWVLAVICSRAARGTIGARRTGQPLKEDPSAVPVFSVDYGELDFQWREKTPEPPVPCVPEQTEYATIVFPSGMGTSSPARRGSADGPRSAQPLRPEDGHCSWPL
Type: cell-based
Outline: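 Binding of fluorescent PD-L1-Ig (phycoerythrin on Ig tag, 20 nM final, 1 h) measured by high-content imaging of fixed, Hoechst-counterstained Jurkat-hPD-1 cells. Compound added 2 h at 37° C beforehand, in DMEM with 10% fetal calf serum.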

Structure (SMILES) | IC50 [µM]
Cc1cccc(C[C@@H]2NC(=O)[C@H](CC(=O)O)NC(=O)[C@H](Cc3ccc(OCC(=O)O)cc3)NC(=O)[C@H](Cc3ccc(C(N)=O)cc3)NC(=O)CSC[C@@H](C(=O)N[C@@H](CCN)C(=O)NCCCCCCCCCCC(=O)O)NC(=O)[C@H]([C@@H](C)O)NC(=O)[C@H](C(C)C)NC(=O)[C@H](CC3CCCCC3)NC(=O)[C@H](CCN)NC(=O)[C@@H](CC(C)C)NC(=O)[C@H](CCCN)NC(=O)[C@H](Cc3ccc(OCC(=O)O)cc3)NC(=O)[C@H](Cc3ccc(-c4ccccc4)cc3)NC(=O)[C@H](Cc3ccc(OCC(=O)O)cc3)NC2=O)c1 [Compound 2925] ({CH2CO}-[Phe(4-CONH2)]Y(Carboxymethyl)D[Phe(3-Me)]Y(Carboxymethyl)[Bip]Y(Carboxymethyl)[Orn][dL][Dab][Cha]VTC[Dab][Aun]-OH; thioether N-14) | 0.0366
Cc1cccc(C[C@@H]2NC(=O)[C@H](CC(=O)O)NC(=O)[C@H](Cc3ccc(OCC(=O)O)cc3)NC(=O)[C@H](CCN)NC(=O)CSC[C@@H](C(=O)N[C@@H](CCN)C(=O)NCCCCCCCCCCC(=O)O)NC(=O)[C@H](CO)NC(=O)[C@H](C(C)(C)O)NC(=O)[C@H](CC3CCCCC3)NC(=O)[C@H](CCN)NC(=O)[C@@H](CC(C)C)NC(=O)[C@H](CCCN)NC(=O)[C@H](Cc3ccc(C(N)=O)cc3)NC(=O)[C@H](Cc3ccc(-c4ccccc4)cc3)NC(=O)[C@H](Cc3ccc(C(N)=O)cc3)NC2=O)c1 [Compound 3698] ({CH2CO}-[Dab]Y(Carboxymethyl)D[Phe(3-Me)][Phe(4-CONH2)][Bip][Phe(4-CONH2)][Orn][dL][Dab][Cha][Val(3-OH)]SC[Dab][Aun]-OH; thioether N-14) | 0.0156
Cc1cccc(C[C@@H]2NC(=O)[C@H](CC(=O)O)NC(=O)[C@H](Cc3ccc(OCC(=O)O)cc3)NC(=O)[C@H](Cc3ccncc3)NC(=O)CSC[C@@H](C(=O)N[C@@H](CCN)C(=O)NCCCCCCCCCCCCC(=O)O)NC(=O)[C@H](CO)NC(=O)[C@H](C(C)(C)O)NC(=O)[C@H](CC3CCCCC3)NC(=O)[C@H](CCN)NC(=O)[C@@H](CC(C)C)NC(=O)[C@H](CCCN)NC(=O)[C@H](Cc3ccc(OCC(=O)O)cc3)NC(=O)[C@H](Cc3ccc(-c4ccccc4)cc3)NC(=O)[C@H](Cc3ccc(OCC(=O)O)cc3)NC2=O)c1 [Compound 2224] ({CH2CO}-[4Pal]Y(Carboxymethyl)D[Phe(3-Me)]Y(Carboxymethyl)[Bip]Y(Carboxymethyl)[Orn][dL][Dab][Cha][Val(3-OH)]SC[Dab]-{NH(CH2)12COOH}; thioether N-14) | 0.0262
Cc1cccc(C[C@@H]2NC(=O)[C@H](CC(=O)O)NC(=O)[C@H](Cc3ccc(OCC(=O)O)cc3)NC(=O)[C@H](CCN)NC(=O)CSC[C@@H](C(=O)N[C@@H](CCN)C(=O)N[C@@H](CO)C(=O)NCCCCCCCCCCCC(=O)O)NC(=O)[C@H](CCCN)NC(=O)[C@H](C(C)(C)O)NC(=O)[C@H](CC3CCCCC3)NC(=O)[C@H](CCN)NC(=O)[C@@H](CC(C)C)NC(=O)[C@H](CCCN)NC(=O)[C@H](Cc3ccc(OCC(=O)O)cc3)NC(=O)[C@H](Cc3ccc(-c4ccccc4)cc3)NC(=O)[C@H](Cc3ccc(OCC(=O)O)cc3)NC2=O)c1 [Compound 3624] ({CH2CO}-[Dab]Y(Carboxymethyl)D[Phe(3-Me)]Y(Carboxymethyl)[Bip]Y(Carboxymethyl)[Orn][dL][Dab][Cha][Val(3-OH)][Orn]C[Dab]S[12Ado]-OH; thioether N-14) | 0.0215
Cc1cccc(C[C@@H]2NC(=O)[C@H](CC(=O)O)NC(=O)[C@H](Cc3ccc(OCC(=O)O)cc3)NC(=O)[C@H](CCCNC(=N)N)NC(=O)CSC[C@@H](C(=O)N[C@@H](CCN)C(=O)NCCCCCCCCCCC(=O)O)NC(=O)[C@H](CCCN)NC(=O)[C@H](C(C)(C)O)NC(=O)[C@H](CC3CCCCC3)NC(=O)[C@H](CCN)NC(=O)[C@@H](CC(C)C)NC(=O)[C@H](CCCN)NC(=O)[C@H](Cc3ccc(OCC(=O)O)cc3)NC(=O)[C@H](Cc3ccc(-c4ccccc4)cc3)NC(=O)[C@H](Cc3ccc(OCC(=O)O)cc3)NC2=O)c1 [Compound 2849] ({CH2CO}-RY(Carboxymethyl)D[Phe(3-Me)]Y(Carboxymethyl)[Bip]Y(Carboxymethyl)[Orn][dL][Dab][Cha][Val(3-OH)][Orn]C[Dab][Aun]-OH; thioether N-14) | 0.005
Cc1cccc(C[C@@H]2NC(=O)[C@H](CC(=O)O)NC(=O)[C@H](Cc3ccc(C(=O)O)cc3)NC(=O)[C@H](Cc3ccncc3)NC(=O)CSC[C@@H](C(=O)N[C@@H](CCN)C(=O)NCCOCCOCC(=O)NCCCCCCCCCCC(=O)O)NC(=O)[C@H](CO)NC(=O)[C@H](C(C)(C)O)NC(=O)[C@H](CC3CCCCC3)NC(=O)[C@H](Cc3cnc[nH]3)NC(=O)[C@@H](CC(C)C)NC(=O)[C@H](CCC(N)=O)NC(=O)[C@H](Cc3ccc(OCC(=O)O)cc3)NC(=O)[C@H](Cc3ccc(-c4ccccc4)cc3)NC(=O)[C@H](Cc3ccc(OCC(=O)O)cc3)NC2=O)c1 [Compound 3749] ({CH2CO}-[4Pal][Phe(4-COOH)]D[Phe(3-Me)]Y(Carboxymethyl)[Bip]Y(Carboxymethyl)Q[dL]H[Cha][Val(3-OH)]SC[Dab][AEEA][Aun]-OH; thioether N-14) | 0.0566

Results, then the molecule that gave them:

IC50 [µM] | Structure (SMILES)
0.0214 | Cc1cccc(C[C@@H]2NC(=O)[C@H](CC(=O)O)NC(=O)[C@H](Cc3ccc(OCC(=O)O)cc3)NC(=O)[C@H](CN)NC(=O)CSC[C@@H](C(=O)N[C@@H](CCN)C(=O)NCCOCCOCC(=O)NCCCCCCCCCCC(=O)O)NC(=O)[C@H](C(C)O)NC(=O)[C@H](C(C)C)NC(=O)[C@H](CC3CCCCC3)NC(=O)[C@H](CCN)NC(=O)[C@@H](CC(C)C)NC(=O)[C@H](CCCN)NC(=O)[C@H](C(C)C)NC(=O)[C@H](Cc3ccc(-c4ccccc4)cc3)NC(=O)[C@H](Cc3ccc(O)cc3)NC2=O)c1 (stereo partly drawn) [Compound 2581] ({CH2CO}-[Dap]Y(Carboxymethyl)D[Phe(3-Me)]Y[Bip]V[Orn][dL][Dab][Cha]V[Thr(3ξ)]C[Dab][AEEA][Aun]-OH; thioether N-14)
0.0056 | Cc1cccc(C[C@@H]2NC(=O)[C@H](CC(=O)O)NC(=O)[C@H](Cc3ccc(OCC(=O)O)cc3)NC(=O)[C@H](CN)NC(=O)CSC[C@@H](C(=O)NCCCCCCCCCCC(=O)O)NC(=O)[C@H](CCCN)NC(=O)[C@H](C(C)C)NC(=O)[C@H](CC3CCCCC3)NC(=O)[C@H](CCN)NC(=O)[C@@H](CC(C)C)NC(=O)[C@H](CCCN)NC(=O)[C@H](C(C)C)NC(=O)[C@H](Cc3ccc(-c4ccccc4)cc3)NC(=O)[C@H](C(C)C)NC2=O)c1 [Compound 2605] ({CH2CO}-[Dap]Y(Carboxymethyl)D[Phe(3-Me)]V[Bip]V[Orn][dL][Dab][Cha]V[Orn]C[Aun]-OH; thioether N-14)
0.0063 | Cc1cccc(C[C@@H]2NC(=O)[C@H](CC(=O)O)NC(=O)[C@H](Cc3ccc(OCC(=O)O)cc3)NC(=O)[C@H](CN)NC(=O)CSC[C@@H](C(=O)NC3(C(=O)NCCOCCOCC(=O)NCCCCCCCCCCC(=O)O)CC3)NC(=O)[C@H](CCCN)NC(=O)[C@H](C(C)C)NC(=O)[C@H](CC3CCCCC3)NC(=O)[C@H](CCN)NC(=O)[C@@H](CC(C)C)NC(=O)[C@H](CCCN)NC(=O)[C@H](Cc3ccc(O)cc3)NC(=O)[C@H](Cc3ccc(-c4ccccc4)cc3)NC(=O)[C@H](Cc3ccc(O)cc3)NC2=O)c1 [Compound 2077] ({CH2CO}-[Dap]Y(Carboxymethyl)D[Phe(3-Me)]Y[Bip]Y[Orn][dL][Dab][Cha]V[Orn]C[Ac3c][AEEA][Aun]-OH; thioether N-14)
0.0088 | CC(C)C[C@H]1NC(=O)[C@H](CCCN)NC(=O)[C@H](C(C)C)NC(=O)[C@H](Cc2ccc(-c3ccccc3)cc2)NC(=O)[C@H](C(C)C)NC(=O)[C@H](Cc2c[nH]c3ccccc23)NC(=O)[C@H](CC(=O)O)NC(=O)[C@H](Cc2ccc(OCC(=O)O)cc2)NC(=O)[C@H](C(C)O)NC(=O)CSC[C@@H](C(=O)N[C@H](CC(N)=O)C(=O)NCCOCCOCC(=O)NCCCCCCCCCCC(=O)O)NC(=O)[C@H](CO)NC(=O)[C@H](C(C)C)NC(=O)[C@H](CC2CCCCC2)NC(=O)[C@H](CCN)NC1=O (stereo partly drawn) [Compound 3053] ({CH2CO}-[Thr(3ξ)]Y(Carboxymethyl)DWV[Bip]V[Orn][dL][Dab][Cha]VSC[dN][AEEA][Aun]-OH; thioether N-14)
0.0156 | CC(=O)NCCCC[C@@H]1NC(=O)[C@H](C(C)C)NC(=O)[C@H](CC2CCCCC2)NC(=O)[C@H](CCN)NC(=O)[C@@H](CC(C)C)NC(=O)[C@H](CCCN)NC(=O)[C@H](Cc2ccc(O)cc2)NC(=O)[C@H](Cc2ccc(-c3ccccc3)cc2)NC(=O)[C@H](C(C)C)NC(=O)[C@H](Cc2c[nH]c3ccccc23)NC(=O)[C@H](CC(=O)O)NC(=O)[C@H](Cc2ccc(OCC(=O)O)cc2)NC(=O)[C@H](CCCCNC(=N)N)NC(=O)CSC[C@@H](C(=O)N[C@@H](CCN)C(=O)NCCCCCCCCCCC(=O)O)NC1=O [Compound 3409] ({CH2CO}-[hArg]Y(Carboxymethyl)DWV[Bip]Y[Orn][dL][Dab][Cha]VK(Ac)C[Dab][Aun]-OH; thioether N-14)
0.0115 | CC(C)C[C@H]1NC(=O)[C@H](CCCN)NC(=O)[C@H](C(C)C)NC(=O)[C@H](Cc2ccc(-c3ccccc3)cc2)NC(=O)[C@H](C(C)C)NC(=O)[C@H](Cc2c[nH]c3ccccc23)NC(=O)[C@H](CC(=O)O)NC(=O)[C@H](Cc2ccc(C(=O)O)cc2)NC(=O)[C@H](Cc2ccc(OCC(=O)O)cc2)NC(=O)CSC[C@@H](C(=O)NCCOCCOCC(=O)N[C@@H](CC(=O)NCCCCCCCCCCCC(=O)O)C(=O)O)NC(=O)[C@H](C(C)O)NC(=O)[C@H](C(C)C)NC(=O)[C@H](CC2CCCCC2)NC(=O)[C@H](CCN)NC1=O (stereo partly drawn) [Compound 3042] ({CH2CO}-Y(Carboxymethyl)[Phe(4-COOH)]DWV[Bip]V[Orn][dL][Dab][Cha]V[Thr(3ξ)]C[AEEA][βAsp][12Ado]-OH; thioether N-14)
